According to patent publication US20240252503A1, “METHODS OF TREATMENT” (Arena Pharmaceuticals, Inc., priority 2021, published 2024):

Assays:
[1] = biological target: human 5-HT2A (Homo sapiens, UniProt P28223); test: Receptor affinity, 5-HT2A; assay type: binding
Excerpt: (§1) M1 refers to N-(4-(2-(2-hydroxyethylamino)ethoxy)-3-(1-methyl-1H-pyrazol-5-yl)phenyl)-3-methoxybenzamide. M2 refers to N-(4-(2-aminoethoxy)-3-(1-methyl-1H-pyrazol-5-yl)phenyl)-3-methoxybenzamide.

[2] = biological target: 5-HT2B receptor (Homo sapiens, UniProt P41595); test: Receptor affinity, 5-HT2B; assay type: binding
Chain of 5-HT2B receptor (P41595 whole entry): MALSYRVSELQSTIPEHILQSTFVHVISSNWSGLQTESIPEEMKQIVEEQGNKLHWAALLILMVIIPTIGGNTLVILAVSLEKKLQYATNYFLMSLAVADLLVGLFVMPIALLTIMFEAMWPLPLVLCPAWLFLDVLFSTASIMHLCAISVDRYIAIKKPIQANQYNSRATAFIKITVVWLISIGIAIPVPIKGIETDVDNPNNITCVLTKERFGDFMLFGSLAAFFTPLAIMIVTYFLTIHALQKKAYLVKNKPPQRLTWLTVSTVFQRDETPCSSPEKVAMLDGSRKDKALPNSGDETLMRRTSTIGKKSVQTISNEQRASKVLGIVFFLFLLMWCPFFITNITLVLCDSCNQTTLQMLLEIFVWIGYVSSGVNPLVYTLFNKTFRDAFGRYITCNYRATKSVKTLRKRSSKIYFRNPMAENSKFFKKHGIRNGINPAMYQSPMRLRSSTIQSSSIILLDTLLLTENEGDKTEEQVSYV
Excerpt: as §1

[3] = biological target: T1, 5-HT2C receptor (Homo sapiens, UniProt P28335); test: Receptor affinity, 5-HT2C; assay type: binding
T1 sequence (P28335 33-458): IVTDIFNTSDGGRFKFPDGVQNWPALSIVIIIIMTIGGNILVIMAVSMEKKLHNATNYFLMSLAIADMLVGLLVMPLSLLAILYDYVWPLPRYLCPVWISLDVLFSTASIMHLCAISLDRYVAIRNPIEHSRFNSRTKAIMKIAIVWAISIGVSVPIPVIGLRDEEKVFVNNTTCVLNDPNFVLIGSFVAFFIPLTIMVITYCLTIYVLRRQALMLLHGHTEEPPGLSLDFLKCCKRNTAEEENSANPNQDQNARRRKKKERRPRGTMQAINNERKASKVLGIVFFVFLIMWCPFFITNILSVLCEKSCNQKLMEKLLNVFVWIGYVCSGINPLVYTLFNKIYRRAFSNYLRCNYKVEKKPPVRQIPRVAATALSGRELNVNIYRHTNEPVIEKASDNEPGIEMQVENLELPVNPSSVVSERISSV
Excerpt: as §1

[4] = test system: cold-induced vasoconstriction in the rabbit foot; test: Intra-arterial dosing in anesthetized rabbits, peripheral cooling of hind foot; assay type: in vivo, New Zealand White rabbit; conditions: intra-arterial 0.05 then 0.1 mg/kg; left hind foot in 40° C., then 15° C. water bath
Protocol: A study was conducted to assess the effects of intra-arterial dosing of Compound 1 and ketanserin on body temperature, peripheral cooling and peripheral blood flow in naïve anesthetized male New Zealand White rabbits.
Formulations of each test compound were prepared by adding saline and vortexing and sonicating until a clear solution was obtained.
Rabbits were sedated with ketamine/xylazine (25/5 mg/kg, subcutaneous) and then intubated and anesthetized with 1-2% isoflurane driven by 100% oxygen (1-2 L/min). Animals were mechanically ventilated and normal body temperature (38-40° C.) was maintained using an external source of heat (e.g., circulating water blanket, heated surgery table). The femoral incision site was infiltrated with 1 mg/kg ID bupivacaine. A catheter for dosing was placed via cutdown in the left femoral artery. […]
At the start of Dose 1 administration, each rabbit's left hind foot was placed in a water bath set to maintain approximately 40° C. […] At 30 minutes post dose start of Dose 2, in Groups 4-6 only, each rabbit's left hind foot was removed to room temperature, monitored and dosed for an additional 15 minutes.
Average percent change of each temperature and blood flow between baseline and each minute of dose administration was determined relative to time-matched vehicle control data.

[5] = Phase 1 single-dose escalation study, pharmacokinetics; assay type: in vivo, human; conditions: for half-life compared with parent compound: after single oral dose of Compound 1, healthy subjects
Protocol: (§2) A phase 1, randomized, double-blind, placebo-controlled, single-dose escalation study was conducted to assess the tolerability, PK, and PD of Compound 1 doses of 1 to 320 mg administered orally as a single dose to a total of 91 healthy subjects.

[6] = test system: 5-HT-mediated amplification of platelet aggregation; test: Phase 1 single-dose escalation study, platelet aggregation with ADP with and without 5-HT; assay type: in vivo, human; conditions: single oral doses above 1 mg
Protocol: as §2
(§3) PD assessment consisted of measuring pre- and post-dose platelet aggregation using an in vitro assay with ADP with and without 5-HT. The degree of thrombin receptor activating peptide (TRAP)-induced platelet aggregation inhibition between groups was similar. However, Compound 1 inhibited 5-HT-mediated amplification of platelet aggregation at doses above 1 mg.

[7] = test system: thrombin receptor activating peptide (TRAP)-induced platelet aggregation; test: Phase 1 single-dose escalation study, TRAP-induced platelet aggregation; assay type: in vivo, human; conditions: single oral dose, versus placebo groups
Protocol: as §2, §3

[8] = Phase 1 multiple-ascending dose study, pharmacokinetics; assay type: in vivo, human; conditions: for accumulation ratio as measured by AUCtau: 60 and 80 mg Compound 1 TID, after 7 days
Protocol: (§4) A phase 1, randomized, double-blind, placebo-controlled, multiple-ascending dose-escalation study was conducted to assess the safety, tolerability, PD, and steady state PK of Compound 1 from 5 to 80 mg administered orally TID for 7 days in a total of 50 healthy subjects.

[9] = test system: ex vivo 5-HT-mediated amplification of platelet aggregation; test: Phase 1 multiple-ascending dose study, ex vivo platelet aggregation; assay type: in vivo, human
Protocol: as §4
Administration of Compound 1 inhibited ex vivo 5-HT-mediated amplification of platelet aggregation.

[10] = test system: Raynaud phenomenon attacks; conditions: intravenous; cited from earlier work
[11] = test system: Raynaud phenomenon attacks; conditions: intravenous, over 9 weeks, cited from earlier work

Chain of human 5-HT2A (P28223 whole entry): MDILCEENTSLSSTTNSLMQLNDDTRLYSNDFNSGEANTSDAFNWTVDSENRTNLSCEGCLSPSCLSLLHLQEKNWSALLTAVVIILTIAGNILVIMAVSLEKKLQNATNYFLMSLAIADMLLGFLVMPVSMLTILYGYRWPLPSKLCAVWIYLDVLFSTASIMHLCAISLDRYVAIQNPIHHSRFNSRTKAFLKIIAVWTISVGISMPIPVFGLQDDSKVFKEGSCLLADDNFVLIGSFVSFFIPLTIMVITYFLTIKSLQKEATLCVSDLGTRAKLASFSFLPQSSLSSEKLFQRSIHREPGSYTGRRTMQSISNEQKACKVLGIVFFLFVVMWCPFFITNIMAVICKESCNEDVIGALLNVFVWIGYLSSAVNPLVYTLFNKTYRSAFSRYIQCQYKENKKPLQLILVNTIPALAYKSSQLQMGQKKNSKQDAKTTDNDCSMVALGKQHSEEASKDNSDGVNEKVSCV

| affinity for human 5-HT2A [1] | affinity for 5-HT2B receptor [2] | affinity for 5-HT2C receptor [3] | accumulation ratio as measured by AUCtau [8] | SMILES | effect on cold-induced vasoconstriction in the rabbit foot [4] | half-life compared with parent compound [5] | further results |
| --- | --- | --- | --- | --- | --- | --- | --- |
| high affinity | no appreciable affinity | no appreciable affinity | – | COc1cccc(C(=O)Nc2ccc(OCCN3CCOCC3)c(-c3ccnn3C)c2)c1 [Compound 1, 3-methoxy-N-[3-(2-methylpyrazol-3-yl)-4-(2-morpholin-4-ylethoxy)phenyl]benzamide] | partially reduced | – | half-life as Compound 1 dose was escalated ([5]; single oral dose 1 to 320 mg): half-life increased; dose proportionality of plasma exposure measures ([5]; single oral dose 1 to 320 mg, healthy subjects): greater than dose proportional; absorption ([5]; single oral dose 1 to 320 mg, healthy subjects, all doses): rapidly absorbed; 5-HT-mediated amplification of platelet aggregation [6]: inhibited; degree of TRAP-induced platelet aggregation inhibition between groups [7]: similar; dose proportionality of exposure as measured by AUC ([8]; 5 and 10 mg TID): dose proportional; absorption ([8]; 5 to 80 mg oral TID for 7 days, all doses): rapidly absorbed; dose proportionality of exposure as measured by AUC ([8]; 40, 60, and 80 mg TID, Day 1 and Day 7): greater than dose proportional; Cmax and AUC accumulation ratio ([8]; all doses, Day 7 compared with Day 1, TID for 7 days): less than 2; extent of inhibition of ex vivo 5-HT-mediated amplification of platelet aggregation ([9]; 60 mg and 80 mg doses, following dosing on Days 1, 4, and 7): essentially maximal; ex vivo 5-HT-mediated amplification of platelet aggregation ([9]; 5 to 80 mg oral TID for 7 days): inhibited |
| high affinity | no appreciable affinity | no appreciable affinity | approximately 2 | COc1cccc(C(=O)Nc2ccc(OCCNCCO)c(-c3ccnn3C)c2)c1 [Compound M1, N-(4-(2-(2-hydroxyethylamino)ethoxy)-3-(1-methyl-1H-pyrazol-5-yl)phenyl)-3-methoxybenzamide] | – | longer half-lives than the parent compound | – |
| high affinity | no appreciable affinity | no appreciable affinity | approximately 2 | COc1cccc(C(=O)Nc2ccc(OCCN)c(-c3ccnn3C)c2)c1 [Compound M2, N-(4-(2-aminoethoxy)-3-(1-methyl-1H-pyrazol-5-yl)phenyl)-3-methoxybenzamide] | – | longer half-lives than the parent compound | – |

The remaining lines, values behind:

| SMILES | affinity for human 5-HT2A [1] | affinity for 5-HT2B receptor [2] | affinity for 5-HT2C receptor [3] | accumulation ratio as measured by AUCtau [8] | effect on cold-induced vasoconstriction in the rabbit foot [4] | half-life compared with parent compound [5] | further results |
| --- | --- | --- | --- | --- | --- | --- | --- |
| CCCCC[C@H](O)/C=C/[C@@H]1[C@H]2C/C(=C/CCCC(=O)O)O[C@H]2C[C@H]1O [epoprostenol] | – | – | – | – | – | – | frequency and duration of Raynaud phenomenon attacks [10]: reduced frequency and duration of Raynaud phenomenon attacks; time after the last infusion at which loss in clinical response was observed [10]: 8-10 weeks |
| CC#CCC(C)[C@H](O)/C=C/[C@@H]1[C@H]2C/C(=C/CCCC(=O)O)C[C@H]2C[C@H]1O (stereo partly drawn) [iloprost] | – | – | – | – | – | – | improvement of severity score ([11]; versus 19.7% in comparator): 34.8%; reduction of weekly Raynaud phenomenon attacks ([11]; versus 22.2% in comparator): 39.1% |
| O=C(c1ccc(F)cc1)C1CCN(CCn2c(=O)[nH]c3ccccc3c2=O)CC1 [ketanserin, reference compound] | – | – | – | – | partially reduced | – | – |
